Here are results for 3 compounds from the Kinase Knowledgebase extract (Sharma et al. 2016).

Assay [1] addresses EGFR (human), P00533 [WT].
Assay [2] addresses EGFR (human) (UniProt P00533). The conditions noted are these: a549.
Assay [3] concerns the target EGFR (human) (UniProt P00533). The conditions noted are these: h1975.
Assay [4] addresses EGFR (human), P00533 [L858R].
Assay [5] has as its target EGFR (human) (UniProt P00533). Conditions: hcc827.

pIC50: −log10 of the molar value.

Sequence of EGFR (human) (P00533 whole entry, looked up): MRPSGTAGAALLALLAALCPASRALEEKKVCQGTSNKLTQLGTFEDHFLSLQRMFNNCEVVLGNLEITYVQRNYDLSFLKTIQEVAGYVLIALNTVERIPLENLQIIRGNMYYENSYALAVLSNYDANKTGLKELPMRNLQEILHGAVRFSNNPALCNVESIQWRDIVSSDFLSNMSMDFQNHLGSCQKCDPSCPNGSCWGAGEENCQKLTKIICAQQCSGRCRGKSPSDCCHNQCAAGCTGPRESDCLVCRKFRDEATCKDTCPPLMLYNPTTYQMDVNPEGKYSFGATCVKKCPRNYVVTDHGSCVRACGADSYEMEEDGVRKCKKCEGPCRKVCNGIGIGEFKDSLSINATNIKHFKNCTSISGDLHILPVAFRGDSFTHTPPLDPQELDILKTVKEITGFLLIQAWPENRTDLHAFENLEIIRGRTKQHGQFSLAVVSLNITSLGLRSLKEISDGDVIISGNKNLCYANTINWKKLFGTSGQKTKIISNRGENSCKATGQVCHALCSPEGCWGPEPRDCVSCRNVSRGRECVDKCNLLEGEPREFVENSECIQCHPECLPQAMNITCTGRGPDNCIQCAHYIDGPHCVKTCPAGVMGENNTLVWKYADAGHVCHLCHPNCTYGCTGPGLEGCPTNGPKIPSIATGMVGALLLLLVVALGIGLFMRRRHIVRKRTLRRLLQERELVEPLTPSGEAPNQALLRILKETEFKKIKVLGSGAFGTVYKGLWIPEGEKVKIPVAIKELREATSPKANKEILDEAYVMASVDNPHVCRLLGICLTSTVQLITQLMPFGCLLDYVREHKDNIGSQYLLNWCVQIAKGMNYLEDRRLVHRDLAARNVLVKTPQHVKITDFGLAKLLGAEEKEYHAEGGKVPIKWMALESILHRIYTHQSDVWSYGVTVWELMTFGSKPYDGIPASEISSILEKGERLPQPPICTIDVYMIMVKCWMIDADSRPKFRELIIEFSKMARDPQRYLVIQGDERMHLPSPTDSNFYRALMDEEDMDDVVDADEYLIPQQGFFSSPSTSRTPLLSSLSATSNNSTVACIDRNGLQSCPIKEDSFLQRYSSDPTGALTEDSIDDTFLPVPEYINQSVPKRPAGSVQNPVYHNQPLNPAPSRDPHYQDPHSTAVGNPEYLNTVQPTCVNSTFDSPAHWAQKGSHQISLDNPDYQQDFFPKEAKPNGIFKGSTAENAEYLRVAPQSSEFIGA
Sequence of EGFR (human), P00533 [WT] (P00533 whole entry, looked up): as above
Sequence of EGFR (human), P00533 [L858R] (P00533 whole entry L858R, looked up): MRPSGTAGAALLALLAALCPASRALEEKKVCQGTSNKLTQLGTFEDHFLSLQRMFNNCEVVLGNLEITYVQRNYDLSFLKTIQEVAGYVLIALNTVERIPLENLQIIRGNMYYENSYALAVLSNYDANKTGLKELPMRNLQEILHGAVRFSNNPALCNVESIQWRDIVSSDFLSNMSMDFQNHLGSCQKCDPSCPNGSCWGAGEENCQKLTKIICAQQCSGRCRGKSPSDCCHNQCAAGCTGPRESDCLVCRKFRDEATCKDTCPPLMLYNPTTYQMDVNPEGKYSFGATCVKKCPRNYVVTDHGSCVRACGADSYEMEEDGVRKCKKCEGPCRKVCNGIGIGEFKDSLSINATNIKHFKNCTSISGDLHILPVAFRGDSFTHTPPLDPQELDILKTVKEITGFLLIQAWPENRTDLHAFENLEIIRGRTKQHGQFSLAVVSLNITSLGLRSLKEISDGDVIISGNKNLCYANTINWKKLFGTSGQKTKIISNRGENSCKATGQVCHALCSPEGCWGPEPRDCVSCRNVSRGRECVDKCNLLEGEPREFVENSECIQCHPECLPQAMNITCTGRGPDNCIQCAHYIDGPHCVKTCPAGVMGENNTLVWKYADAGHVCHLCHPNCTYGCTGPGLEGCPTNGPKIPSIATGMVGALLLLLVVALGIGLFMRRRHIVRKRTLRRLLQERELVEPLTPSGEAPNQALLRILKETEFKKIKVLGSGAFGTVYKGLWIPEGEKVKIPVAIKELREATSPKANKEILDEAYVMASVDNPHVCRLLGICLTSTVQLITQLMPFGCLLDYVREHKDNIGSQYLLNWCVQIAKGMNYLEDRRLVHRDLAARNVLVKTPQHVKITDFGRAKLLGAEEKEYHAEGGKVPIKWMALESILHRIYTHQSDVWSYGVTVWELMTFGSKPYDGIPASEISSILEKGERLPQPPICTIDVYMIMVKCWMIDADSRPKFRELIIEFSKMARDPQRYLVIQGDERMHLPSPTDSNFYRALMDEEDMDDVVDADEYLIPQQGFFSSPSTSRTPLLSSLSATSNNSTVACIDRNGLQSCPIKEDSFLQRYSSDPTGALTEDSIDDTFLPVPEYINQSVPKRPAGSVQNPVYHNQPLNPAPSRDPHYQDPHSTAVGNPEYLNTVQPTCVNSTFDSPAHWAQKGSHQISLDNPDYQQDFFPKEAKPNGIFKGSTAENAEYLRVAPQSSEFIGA

For the compound `COc1cc2c(Oc3ccc(NC(=O)C4=C(C)N(C)C(c5ccccc5)C4=O)cc3F)ccnc2cc1OCCCN1CCN(C)CC1` (configuration not stated), the pIC50 in assay [1] is 5.12; against EGFR (human) [2] it was 5.91; on EGFR (human) [3] it was 5.97; in assay [4], < 4.80; against EGFR (human) [5] it was 5.59.

As for `COc1cc2c(Oc3ccc(NS(=O)(=O)c4ccc(-c5cnn(C)c5)cc4)cc3F)ccnc2cc1OCCCN1CCN(C)CC1`, the pIC50 at EGFR (human) [2] and against EGFR (human) [3] was < 5.00 throughout.

For `COc1cc2c(Oc3ccc(NC(=O)C4=C(C)N(C)C(c5ccccc5)C4=O)cc3F)ccnc2cc1OCCCN1CCOCC1` (configuration not stated), the pIC50 in assay [1] was < 4.80; against EGFR (human) [2], 5.92; at EGFR (human) [3], 5.84; in assay [4] it was < 4.80; at EGFR (human) [5] it was 5.60.
